Results published in publication PMC9797212, “Surface Modification of Erythrocytes with Lipid Anchors: Structure–Activity Relationship for Optimal Membrane Incorporation, in vivo Retention, and Immunocompatibility” (Advanced nanobiomed research, 2022).

Key:
[1] = In vivo circulation of labeled RBCs and lipid retention, flow cytometry, BALB/c mice; details: for half-life: both sexes, mouse, whole blood (RBCs), iv, mono- or biexponential decay, summary value, read-out: MFI half life, estimated (extrapolated) terminal (converted)
Experimental: Next, we investigated in vivo retention and longevity of modified RBCs. We used the lipids with the highest labeling efficiency (Figure 2C,D) for in vivo studies: DiI-C18, DiI-C18:2, DiI-C12, Cy3-C12, DiI-PEG3400Mtz, Cy3-DSPE, and Cy3-cholesterol. Labeled RBCs were injected intravenously in BALB/c mice and the circulating levels (percent positive RBCs) and the stability of the lipid (MFI of the labeled population) were analyzed by flow cytometry (Figure 3A). Representative dot plots for DiI-C18 and DiI-C18:2 (Figure 3B) show a distinct population of labeled RBCs at both 1 min (between 9% and 13% of total RBCs) and 3 weeks postinjection. We found differences between lipids in terms of both percent RBC and percent MFI (Figure 3C,D). […] DiI-C18 RBCs had ≈40 days circulation span and only about 33% decrease in MFI at Day 20. […] Cy3-cholesterol RBCs had ≈30 days circulation span, but MFI dropped below 35% at Day 22.
The University of Colorado Institutional Animal Care and Use Committee (IACUC) approved animal experiments (protocol 103 913(11)1D). Mice were treated according to regulations provided by the Office of Laboratory Animal Resources at the University of Colorado. BALB/c and NOD/LtSz-SCID IL2Rγc null (NSG) mice were bred in-house. Mice of 8–10 weeks age (males and females) were used for experiments. Mice were injected intravenously with ≈10^9 RBCs (each strain was injected with RBCs derived from the same strain). At different time intervals, ≈20 μL of blood were obtained with heparinated haematocrit capillary (ThermoFisher) via periorbital plexus. RBCs were resuspended at ≈0.5 million mL^−1 in 1%BSA/PBS and analyzed by Guava easyCyte HT flow cytometer (20 000 RBCs were counted after gating out platelets and leukocytes). The percentage of positive RBCs and mean fluorescence intensity (MFI) of labeled RBCs (if more than 1% of total RBCs) was determined using FlowJo software v.10 (BD Life Sciences, Ashland, OR). For pharmacokinetic analysis, the flow data were normalized to 100% injected dose (MFI and percent labeled RBCs at 1 min) and fit into mono or biexponential decay using the pharmacokinetic modeling software Boomer.[21]

mouse RBCs = experiment: Labeling of mouse RBCs with lipids, flow cytometry; type: cell-based, mouse (BALB/c); details: lipids at 25 μM, 1 h
Source text: We acquired commercially available dialkyl indocarbocyanine lipids DiI-C18, DiI-C18:2, DiI-C16, DiI-C12 and synthesized additional headgroup derivatives of DiI-C18: DiI-amine, DiI-PEG5000, and DiI-PEG3400-methyltetrazine (Mtz). In addition, we prepared diacyl glycerol derivatives of Cy3: Cy3-C18, Cy3-C18:1, Cy3-C16, Cy3-C14, Cy3-C12, phospholipid derivative Cy3-distearoyl phosphatidylethanolamine (Cy3-DSPE), and Cy3-cholesterol. This library covers different lipid lengths, lipid types, and also headgroup-tail linkages. In addition, the library includes a limited number of headgroup derivatives relevant to drug delivery. Thus, PEGylated lipids have importance for erythrocyte PEGylation for blood camouflaging. Mtz is a click chemistry group that enables versatile modifications with biomolecules,[13] but also serves as a mimic of a small molecule payload (Mw 230 Da). […] RBCs were incubated with lipids at 25 μM for 1 h and washed and analyzed with flow cytometry for the percentage of labeled cells and mean fluorescence intensity (MFI). […]
Fresh human RBCs were obtained from discarded leukodepletion filters after processing sodium citrate anticoagulated donor blood at the Children’s Hospital Colorado Blood Donation Center. […] Labeling efficiency were determined by Guava easyCyte HT flow cytometer (Luminex Corp, Seattle, WA) as described later.

[2] = Lipid stability in RBCs in mouse serum in vitro; type: in vitro ADME, mouse (BALB/c serum); details: 3 h; for loss in MFI of labeled RBCs: 37 °C
Experimental: The nature of lipid linker affects in vivo retention. […] To compare the stability of different lipids in vitro, we measured the fluorescence of labeled RBCs after incubation in mouse serum for 3 h.
Mouse RBC labeled with lipids were incubated in mouse serum at 37 °C for up to 3 h. Intact RBCs were removed by centrifugation at 3000 g for 10 min at room temperature. RBCs were washed three times in 1% BSA/PBS to remove the remaining serum, and the labeling (MFI) was determined by flow cytometry as described above. The supernatant was analyzed for fluoresce released from RBC by dotting 2 μL on 0.45 μm nitrocellulose membrane and scanning with a Bio-Rad gel imager for Cy3 fluorescence at 540 nm excitation/560 nm emission. For TLC, 10 parts of methanol were added to 1 part of serum, and the tubes were centrifuged at 500 g for 10 min to pellet the protein fraction. The methanol phase was carefully collected, applied on TLC Silica Gel 60 F254 (EMD Millipore), and separated on the mobile phase chloroform: methanol (9:1) with 0.1% trifluoroacetic acid. The plates were scanned with a Bio-Rad gel imager for Cy3 fluorescence.

human RBCs = experiment: Labeling of human RBCs with lipids, flow cytometry; type: cell-based; details: lipids at 25 μM, 1 h; for MFI of labeled human RBCs, fold higher than the rest of the lipids / percentage of labeled human RBCs (in words): flow cytometry
Source text: We acquired commercially available dialkyl indocarbocyanine lipids DiI-C18, DiI-C18:2, DiI-C16, DiI-C12 and synthesized additional headgroup derivatives of DiI-C18: DiI-amine, DiI-PEG5000, and DiI-PEG3400-methyltetrazine (Mtz). In addition, we prepared diacyl glycerol derivatives of Cy3: Cy3-C18, Cy3-C18:1, Cy3-C16, Cy3-C14, Cy3-C12, phospholipid derivative Cy3-distearoyl phosphatidylethanolamine (Cy3-DSPE), and Cy3-cholesterol. This library covers different lipid lengths, lipid types, and also headgroup-tail linkages. In addition, the library includes a limited number of headgroup derivatives relevant to drug delivery. Thus, PEGylated lipids have importance for erythrocyte PEGylation for blood camouflaging. Mtz is a click chemistry group that enables versatile modifications with biomolecules,[13] but also serves as a mimic of a small molecule payload (Mw 230 Da). To determine the labeling efficiency, we used fresh human RBCs from two healthy donors. RBCs were incubated with lipids at 25 μM for 1 h and washed and analyzed with flow cytometry for the percentage of labeled cells and mean fluorescence intensity (MFI). […] Select lipids were then used to label mouse RBCs. The data in Figure 2C,D show generally higher mouse RBC labeling efficiency (MFI and percent RBCs) than human RBCs. […] Finally, we checked the linearity of the Cy3 group signal when incorporated in RBCs.
Fresh human RBCs were obtained from discarded leukodepletion filters after processing sodium citrate anticoagulated donor blood at the Children’s Hospital Colorado Blood Donation Center. Institutional review board approval was not required for discarded material and anonymous samples. RBCs were eluted from leukodepletion filters by applying ACD buffer in the direction of the flow and were used within 2 h after blood collection. Sodium EDTA-anticoagulated mouse blood was collected from female or male BALB/c and NSG mice (8–10 weeks of age) via cardiac puncture, according to the animal protocol approved by the University of Colorado IACUC). Human RBCs were washed in ACD buffer and mouse RBC were washed in 1% BSA/PBS at room temperature at 3,000 g, total 3 times. Erythrocyte suspension (≈10^10/mL) was incubated with 25 μM lipids in ACD buffer (human RBCs) or 1% BSA/PBS (mouse RBCs) at 37 °C for 1 h and washed three times in ACD buffer or 1% BSA/PBS as described above. Labeling efficiency were determined by Guava easyCyte HT flow cytometer (Luminex Corp, Seattle, WA) as described later.

[3] = design: method as in PMID 33532572; details: 48 h postinjection in mice ref 8a; cited from earlier work
[4] = system: mouse peritoneal macrophages; experiment: Uptake of labeled RBCs by peritoneal macrophages; type: cell-based; details: 24 h incubation, fluorescent microscopy
Experimental: Fresh nonactivated macrophages were isolated and seeded in culture for 24 h in a 96-well culture-treated plate (Corning Inc.) as described.[19] On the next day, labeled RBCs were added (≈1 × 10^5 RBC/well) in triplicates, and macrophages were incubated for 24 h. In some experiments, PMF were prelabeled with 10 μM DiO for 2 h before addition of RBCs. After incubation, macrophages were washed with PBS 4 times to remove nonbound RBCs, fixed with 4% formalin, and stained with nuclear stain Hoechst. Cells were imaged under 100× magnification with Zeiss Axio Observer 5 epifluorescent microscope, and ≈7 microscopic fields were acquired. To verify RBC localization outside the cells, a Nikon Eclipse AR1HD inverted confocal microscope with 405, 488, 561, and 640 nm excitation lasers and corresponding emission filters was used. The percentage of DiI+ cells and rosette+ cells per field was determined manually and plotted with Prism.

[5] = Organ biodistribution of labeled RBCs (NIR imaging, confocal microscopy of liver and spleen); details: Day 40 (DiI-C18 RBCs), Day 29 (DiI-PEG3400Mtz RBCs)
Experimental: To determine the location of the label in the clearance organs, we imaged freshly excised livers and spleens of BALB/c mice injected with DiI-C18 RBCs and DiI-PEG3400Mtz RBCs (Day 40 and Day 29, respectively) with confocal microscope.
When labeled RBCs reached <1% of total RBCs (usually 10% or less of the injected dose), mice were injected with FITC-lectin and Hoechst and sacrificed with carbon dioxide (CO2) followed by cardiac perfusion. Fresh livers and spleens were placed on glass slides and imaged with Nikon Eclipse AR1HD inverted confocal microscope with Plan Apo 10 objective as described.[18]

[6] = design: species or system BALB/c mice; details: mouse
Experimental: Figure 6. Biodistribution and immune recognition of RBCs. A) RBCs labeled with DiR were injected in BALB/c mice and blood fluorescence was monitored with NIR scanner Li-COR Odyssey. […] D) Confocal microscopy images of fresh livers and spleens of mice injected with DiI-C18 and DiI-PEG3400Mtz (after in vivo labeling of blood vessels and nuclei with FITC-lectin and Hoechst). The lipid accumulates in extrasinusoidal cells in the spleen and predominantly in sinusoidal cells in the liver (i.e., endothelium and Kupffer cells). […] E) RBCs were incubated with fresh peritoneal macrophages for 24 h. […] F) Quantification of percent cells (per field) that contain intracellular DiI. G) Quantification of percent cells (per field) that contain DiI+ rosettes. P-value: ****0.0001; ***<0.001 2-sided t-test, alpha 0.05.

SMILES | half-life ([1]; BALB/c) [h] | loss in MFI of labeled RBCs [2] | MFI of labeled human RBCs, fold higher than the rest of the lipids (human RBCs) | percentage of labeled human RBCs (in words) (human RBCs) | circulation and retention of labeled RBCs (in words) ([1]; i.v., BALB/c) | further results
CCCCCCCCCCCCCCCCN1/C(=C/C=C/C2=[N+](CCCCCCCCCCCCCCCC)c3ccccc3C2(C)C)C(C)(C)c2ccccc21 [DiI-C16] |  |  | 2–3 fold |  |  | 
CCCCCCCCCCCCCCCCCC(=O)OC[C@H](COP(=O)(O)OCCNC(=O)CCCCC[N+]1=C(/C=C/C=C2/N(C)c3ccccc3C2(C)C)C(C)(C)c2ccccc21)OC(=O)CCCCCCCCCCCCCCCCC [Cy3-DSPE, Cy3-distearoyl phosphatidylethanolamine] |  | over 60% | 2–3 fold | highest percentage of labeled human RBCs | disappeared within a few days postinjection | TLC analysis of serum supernatant [2]: presence of intact Cy3-DSPE along with some degradation products; fluorescence released in serum from labeled RBCs, relative to DiI-C18 RBCs [2]: five times more fluorescence released in serum; human RBC labeling efficiency (human RBCs): 100%
CC(C)CCCC(C)C1CCC2C3CC=C4CC(OC(=O)CCCCC[N+]5=C(C=CC=C6N(C)c7ccccc7C6(C)C)C(C)(C)c6ccccc65)CCC4(C)C3CCC12C (stereo not drawn) [Cy3-cholesterol] | 300 | less than 15% |  |  | longest circulation and retention | MFI of labeled RBCs, percent of initial ([1]; Day 22, 1 min postinjection = 100%): below 35%
CCCCCCCCCCCCCC(=O)OCC(CNC(=O)CCCCC[N+]1=C(/C=C/C=C2/N(C)c3ccccc3C2(C)C)C(C)(C)c2ccccc21)OC(=O)CCCCCCCCCCCCC (stereo not drawn) [Cy3-C14] |  |  |  | highest percentage of labeled human RBCs |  | 
CCCCCCCCCCCC(=O)OCC(CNC(=O)CCCCC[N+]1=C(/C=C/C=C2/N(C)c3ccccc3C2(C)C)C(C)(C)c2ccccc21)OC(=O)CCCCCCCCCCC (stereo not drawn) [Cy3-C12] |  | less than 15% |  | highest percentage of labeled human RBCs | disappeared within a few days postinjection | drop in MFI of labeled RBCs ([1]; Day 3, 1 min postinjection = 100%): 85%
CCCCCCCCCCCCCCCCCCN1/C(=C/C=C/C2=[N+](CCCCCCCCCCCCCCCCCC)c3ccc(CN)cc3C2(C)C)C(C)(C)c2ccccc21 [DiI-amine] |  |  |  |  |  | labeling efficiency of human RBCs, fold lower than the parent DiI-C18 (human RBCs): ≈ 4 fold
CCCCCCCCCCCCCCCCCCN1C(=CC=CC=CC=CC2=[N+](CCCCCCCCCCCCCCCCCC)c3ccccc3C2(C)C)C(C)(C)c2ccccc21.[I-] [DiR-C18, 1,1′-Dioctadecyl-3,3,3′,3′-Tetramethylindotricarbocyanine Iodide] |  |  |  |  |  | in vivo life span of labeled RBCs [6]: over 30 days; terminal half life of labeled RBCs ([6]; in vivo): 175 h

Continued, in another order:

half-life ([1]; BALB/c) [h] | loss in MFI of labeled RBCs [2] | SMILES | MFI of labeled human RBCs, fold higher than the rest of the lipids (human RBCs) | percentage of labeled human RBCs (in words) (human RBCs) | circulation and retention of labeled RBCs (in words) ([1]; i.v., BALB/c) | further results
72 | less than 15% | CCCCCCCCCCCCN1/C(=C/C=C/C2=[N+](CCCCCCCCCCCC)c3ccccc3C2(C)C)C(C)(C)c2ccccc21 [DiI-C12] | 2–3 fold | highest percentage of labeled human RBCs |  | decrease in MFI of labeled RBCs (in words) ([1]; i.v., BALB/c): much faster decrease in MFI than DiI-C18 and Cy3-cholesterol; mouse RBC labeling efficiency (in words) (mouse RBCs): highest efficiency; human RBC labeling efficiency (in words) (human RBCs): highest efficiency
> 1920 | less than 15% | CCCCCCCCCCCCCCCCCCN1/C(=C/C=C/C2=[N+](CCCCCCCCCCCCCCCCCC)c3ccccc3C2(C)C)C(C)(C)c2ccccc21 [DiI-C18] | 2–3 fold |  | longest circulation and retention | decrease in MFI of labeled RBCs ([1]; Day 20, 1 min postinjection = 100%): about 33%; lipid present in the RBC membrane [3]: up to 90%; macrophages with intracellular Cy3 fluorescence [4]: mostly intracellular uptake; location of Cy3 signal in liver and spleen, confocal microscopy [5]: predominant accumulation of Cy3 signal in extrasinusoidal spleen cells and some accumulation in the liver sinusoids; human RBC labeling efficiency (human RBCs): 28%
